Experimental data reported in patent US20030114449A1, “SACCHARIN DERIVATIVES AS ORALLY ACTIVE ELASTASE INHIBITORS” (priority 1999, published 2003).

Molecular target: T1, human leukocyte elastase enzyme (Homo sapiens, UniProt P08246)
T1 sequence (P08246 30-267): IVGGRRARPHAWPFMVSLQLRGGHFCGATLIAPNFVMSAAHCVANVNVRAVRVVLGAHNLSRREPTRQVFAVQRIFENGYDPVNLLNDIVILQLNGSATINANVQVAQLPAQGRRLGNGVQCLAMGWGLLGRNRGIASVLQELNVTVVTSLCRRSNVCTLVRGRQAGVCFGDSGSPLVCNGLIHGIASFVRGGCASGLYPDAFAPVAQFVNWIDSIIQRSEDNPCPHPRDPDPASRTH
Experiment: Inhibition of acute lung damaging effect caused by human leukocyte elastase enzyme, determined on mice (BAL haemoglobin)
Type: in vivo, mouse
Conditions: for inhibition %: male NMRI mice, p.o. dose 10 mg/bw kg, 60 minutes before intratracheal human leukocyte elastase, haemorrhagic response (BAL haemoglobin, 540 nm) 3 hours later; for ED50: mouse, po, mice, per os, elastase-induced lung haemorrhage
Procedure: Inhibition of Acut Lung Damaging Effect Caused by Human Leukocyte Elastase Enzyme, Determined on Mice.
Description of the method:
Male NMRI mice approximately 6-8 week old of age, weighing between 22-26 grams were dosed per os with the 0.1% (w/v) solution in carboxymethyl cellulose of the investigated compounds of the general formula (I) or of the known comparatory compound, respectively. 60 minutes later the mice were given intratracheally 12.5 international unit of human leukocyte elastase enzyme dissolved in 25.0 μL sterile physiological sodium chloride solution.
3 hours later the animals were euthanized with an overdose of urethane and into the lung 1 ml of physiological salt solution was introduced, for washing.
The trachea was exposed at wound by opening suture clips and a small incision made for insertion of a polyethylene cannula secured in place with surgical thread. An 18 gauge×1½ inch needle, attached to an 1.00 mL syringe was inserted into the cannula, and 0.5 mL of air was withdrawn from the airways. One milliliter was then instilled into the airways. After it the chest was briefly and gently massaged. The syringe was removed from the cannula and the bronchoalveolar lavage (BAL) fluid allowed to drain into a 10.0 mL graduate to determine the total volume of lavage fluid retrievable from lungs while the animal was in a supine position. The instillation procedure mentioned above was repeated three times. Triton X100 was then added to the collected bronchoalveolar lavage fluid (final concentration, 0.2% v/v) to ensure cell disruption and the haemoglobin content was determined spectrophotometrically at 540 nm.
Effectiveness of the elastase enzyme inhibitory compound was determined on the basis of the haemorrhagic responses, according to the following formula:
% inhibition=[(VE−DE)/(VE−VS)]×100,
VE=mean absorbance of BAL fluids from the group pretreated orally only with vehicle but intratracheally with elastase;
DE=absorbance of each BAL fluid from animals pretreated orally with potential inhibitor compound, intratracheally with elastase;
VS=mean absorbance of BAL fluids from group pretreated orally with vehicle and intratracheally with sterile physiological salt solution.
For comparative compound the structurally most related known compound described in patent application EP-0626378A1 example 9E was used. Its synthesis is described above in the reference example.

SMILES | inhibition % | ED50
COc1cc(C(C)C)c2c(c1)S(=O)(=O)N(COc1cc(=O)n3cccc(OCCN4CCCC4)c3n1)C2=O [EP-626378, Example 9E, 2-(9-(2-pyrrolidino-ethoxy)-4-oxo-4H-pyrido[1,2-a]pyrimidin-2-yl-oxymethyl)-4-isopropyl-6-methoxy-1,2-benzisothiazol-3(2H)one-1,1-dioxide, reference compound] | 15% | 23 mg/kg
COc1cc(C(C)C)c2c(c1)S(=O)(=O)N(COc1cc(=O)n3cccc(OCCN4CCCCC4)c3n1)C2=O [Example 3, 2(-9-(2-piperidino-ethoxy)-4-oxo-4H-pyrido[1,2-a]pyrimidin-2-yl-oxymethyl)-4-isopropyl-6-methoxy-1,2-benzisothiazol-3(2H)-one-1,1-dioxide] | 80% | 2.6 mg/kg
COc1cc(C(C)C)c2c(c1)S(=O)(=O)N(COc1cc(=O)n3cccc(OCCN4CCCCC4)c3n1)C2=O.O=C(O)c1ccccc1 [Example 7, 2-(9-(2-piperidino-ethoxy)-4-oxo-4H-pyrido[1,2-a]pyrimidin-2-yl-oxymethyl)-4-isopropyl-6-methoxy-1,2-benzisothiazol-3(2H)-one-1,1-dioxide benzoate salt] | 56% | 
COc1cc(C(C)C)c2c(c1)S(=O)(=O)N(COc1cc(=O)n3cccc(OCCN4CCCCC4)c3n1)C2=O.O=C(O)CC(O)(CC(=O)O)C(=O)O [Example 8, 2-(9-(2-piperidino-ethoxy)-4-oxo-4H-pyrido[1,2-a]pyrimidin-2-yl-oxymethyl)-4-isopropyl-6-methoxy-1,2-benzisothiazol-3(2H)-one-1,1-dioxide monocitrate salt] | 70% | 
